# ChEMBL document CHEMBL1135229, “Novel potent antagonists of human neuropeptide Y Y5 receptors. Part 3: 7-methoxy-1-hydroxy-1-substituted tetraline derivatives” (Bioorg Med Chem Lett, 2002)
# Target: T1, Neuropeptide Y receptor type 5 (Homo sapiens, UniProt Q15761)
# T1 sequence (Q15761 whole entry): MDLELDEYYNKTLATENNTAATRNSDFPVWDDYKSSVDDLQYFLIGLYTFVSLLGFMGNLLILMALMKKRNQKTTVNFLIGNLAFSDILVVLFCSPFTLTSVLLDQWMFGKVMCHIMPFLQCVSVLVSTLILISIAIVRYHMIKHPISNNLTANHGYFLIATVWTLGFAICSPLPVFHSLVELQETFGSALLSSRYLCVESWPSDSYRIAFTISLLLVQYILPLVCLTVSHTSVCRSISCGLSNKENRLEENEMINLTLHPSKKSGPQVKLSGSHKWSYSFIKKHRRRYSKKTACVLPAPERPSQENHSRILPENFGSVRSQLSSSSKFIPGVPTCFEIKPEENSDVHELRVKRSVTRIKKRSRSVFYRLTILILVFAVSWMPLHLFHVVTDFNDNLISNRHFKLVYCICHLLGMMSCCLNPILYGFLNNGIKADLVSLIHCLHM
# Assay: Inhibition of 125 I-PYY binding to human Neuropeptide Y receptor type 5
row,Structure (SMILES),IC50 [nM]
1,COc1ccc2c(c1)CC(CNC(=O)C1CCN(C(=O)Cn3c(=O)sc4ccc(Cl)cc43)CC1)CCC2 (stereo not drawn),1.2
2,COc1ccc2c(c1)C(O)(CNCC1CCN(CCNS(=O)(=O)c3cccc(C)c3)CC1)CCC2 (stereo not drawn),13
3,COc1ccc2c(c1)C(O)(CNCC1CCN(CCNS(=O)(=O)c3cccc(Cl)c3C)CC1)CCC2 (stereo not drawn),11
4,COc1ccc2c(c1)CC(NCC1CCN(C(=O)CNS(=O)(=O)c3cccc4ccccc34)CC1)CCC2 (stereo not drawn),3.7
5,COc1ccc2c(c1)C(O)(CNCCC1CCN(CCNS(=O)(=O)c3cccc4ccccc34)CC1)CCC2 (stereo not drawn),24
6,COc1ccc2c(c1)C(O)(CNCC1CCN(CCNS(=O)(=O)c3cccc4ccccc34)CC1)CCC2 (stereo not drawn),0.54
7,COc1ccc2c(c1)CC(O)(CNCC1CCN(CCNS(=O)(=O)c3cccc4ccccc34)CC1)CCC2 (stereo not drawn),56
8,COc1ccc2c(c1)C(O)(CNCC1CCN(C(=O)Cn3c(=O)sc4ccc(Cl)cc43)CC1)CCC2 (stereo not drawn),28
9,O=C(Nc1nccs1)C1CCN(C(=O)Cn2c(=O)sc3ccc(Cl)cc32)CC1 [FR-73966],53
10,COc1ccc2c(c1)C(O)(CNCC1CCN(CCNS(=O)(=O)c3cccc4ccccc34)CC1)CC2 (stereo not drawn),66
11,COc1ccc2c(c1)C(O)(CNC(=O)C1CCN(C(=O)Cn3c(=O)sc4ccc(Cl)cc43)CC1)CCC2 (stereo not drawn),1
12,COc1ccc2c(c1)CC(NCC1CCN(C(=O)Cn3c(=O)sc4ccc(Cl)cc43)CC1)CCC2 (stereo not drawn),0.7

# Target: T2, Neuropeptide Y receptor type 1 (Homo sapiens, UniProt P25929)
# T2 sequence (P25929 whole entry): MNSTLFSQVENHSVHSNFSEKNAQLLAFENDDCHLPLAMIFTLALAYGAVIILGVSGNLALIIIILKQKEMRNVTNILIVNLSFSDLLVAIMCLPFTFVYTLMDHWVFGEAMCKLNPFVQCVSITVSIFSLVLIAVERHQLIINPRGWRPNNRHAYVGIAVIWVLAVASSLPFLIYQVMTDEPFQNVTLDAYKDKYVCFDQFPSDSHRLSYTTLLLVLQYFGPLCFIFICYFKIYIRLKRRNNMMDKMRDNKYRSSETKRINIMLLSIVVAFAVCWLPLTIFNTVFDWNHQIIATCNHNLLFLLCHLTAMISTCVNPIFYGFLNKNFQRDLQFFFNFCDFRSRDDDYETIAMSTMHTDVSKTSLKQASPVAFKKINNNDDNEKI
# Assay: Compound was evaluated for the inhibitory activity against human Neuropeptide Y receptor type 1
row,Structure (SMILES),IC50 [nM]
1,COc1ccc2c(c1)CC(NCC1CCN(C(=O)Cn3c(=O)sc4ccc(Cl)cc43)CC1)CCC2 (stereo not drawn),12000
